Data set [1] can be described thus: Antioxidant activity assessed as superoxide anion free radical scavenging activity by measuring rate constant using UV irradiation by ESR spin trapping method. Format: functional.
Data set [2] in a line: Antioxidant activity assessed as hydroxyl radical scavenging activity by measuring rate constant using UV irradiation by ESR spin trapping method. Format: functional.
Data set [3] in a line: Antioxidant activity assessed as singlet oxygen scavenging activity by measuring rate constant using VIS irradiation by ESR spin trapping method. Format: functional.
Data set [4] is described as follows: Antioxidant activity assessed as alkoxyl radical scavenging activity by measuring rate constant by ESR spin trapping method. Format: functional.
Data set [5] can be described thus: Electrochemical behaviour of the compound assessed as peak potential. Format: physicochemical.
Data set [6] in a line: Antioxidant activity assessed as DPPH free radical scavenging activity. Format: functional.
Data set [7] in a line: Electrochemical behaviour of the compound assessed as peak potential using disposable screen-printed carbon electrodes. Format: physicochemical.
Data set [8] is described as follows: Antioxidant activity assessed as effect on linolenic acid autooxidation in presence of 0.5 M SDS based micellar systems. Format: functional.
Data set [9] in a line: Antioxidant activity assessed as effect on linolenic acid autooxidation in presence of 0.015 M SDS based micellar systems. Format: functional.
Data set [10] can be described thus: Antioxidant activity assessed as effect on linolenic acid autooxidation in presence of DLPC liposomes. Format: functional.
Data set [11] is described as follows: Metal chelating activity assessed as equilibrium constant for formation of compound-Fe2+ complex formation.
Data set [12] can be described thus: Metal chelating activity assessed as equilibrium constant for formation of compound-Cu2+ complex formation.
The nature of data set [13]: Metal chelating activity assessed as equilibrium constant for formation of compound-Al3+ complex formation.

Molecules are shown by their SMILES. Bounds are passed on as bounds.

`N[C@@H](CCC(=O)N[C@@H](CS)C(=O)NCC(=O)O)C(=O)O`: the K in data set [1] is 1.11 ×10³ /M/s; in data set [2], 16.4 ×10⁹ /M/s; in [3] it was 93.9 ×10⁷ /M/s; in [4], 27.6 ×10⁵ /M/s.
Consider `COc1cc(/C=C/C(=O)O)cc(OC)c1O` [SINAPINATE], for which the Ep in data set [5] was 188 to 295 mV. For the same molecule, the EC50 in [6] turned out to be 0.0724 µmol.
On to `O=C(O)c1cc(O)ccc1O` [GENTISIC ACID], for which the EC50 in [6] is 0.0292 µmol.
On to `O=C(O)/C=C/c1ccccc1O` [O-COUMARIC ACID], for which, in data set [7], the Ep is on record as 750 mV. In addition, the EC50 in [6] was determined as 130.05 µmol.
Regarding `O=C(/C=C/c1ccc(O)c(O)c1)O[C@@H]1C[C@](O)(C(=O)O)C[C@@H](O)[C@H]1O`, the K in [1] stood at 288 ×10³ /M/s; in [2], 9.6 ×10⁹ /M/s; in data set [3], 38.6 ×10⁷ /M/s; in data set [4], 111 ×10⁵ /M/s.
As for `Cc1c(C)c2c(c(C)c1O)CCC(C)(C(=O)O)O2` (centres undefined), the K worked out at 2.1 ×10³ /M/s in data set [1]; 24.8 ×10⁹ /M/s in data set [2]; 6.22 ×10⁷ /M/s in data set [3]; 48.3 ×10⁵ /M/s in [4]; 110000 M⁻¹ s⁻¹ in data set [8]; 1 ×10⁴ /M/s in data set [9]. Besides, the K in data set [10] was 0.58 ×10⁴ /M/s.
Consider `O=C(O)c1ccccc1O` [SALICYLIC ACID], for which the Ep in data set [7] is listed as 940 mV. Also, the EC50 in data set [6] was > 800 µmol.
Take `COc1cc(/C=C/C(=O)O)ccc1O` [FERULATE]: the Ep worked out at 335 mV in data set [5] and 447 mV in [7]. Moreover, the EC50 in [6] is 0.0927 µmol.
Turning to `COc1cc(C(=O)O)cc(OC)c1O` [SYRINGIC ACID], in [7], the Ep amounted to 490 mV. For the same molecule, in [6], the EC50 was found to be 0.0427 µmol.
As for `O=C(O)/C=C/c1cccc(O)c1`, the Ep in data set [7] worked out at 780 mV. Also, the EC50 in data set [6] was > 300 µmol.
On to `COc1cc(C(C)(C)C)c(O)c(C(C)(C)C)c1`, for which the K in data set [8] came out at 1 ×10⁴ /M/s; in data set [9] it was 2.5 ×10⁴ /M/s; in [10], 2.75 ×10⁴ /M/s.
In the case of `O=C(O)c1ccc(O)c(O)c1` [PROTOCATECHUIC ACID], the figures for the Ep in [5] and in [7] were 188 to 317 mV and 410 mV, respectively. The EC50 in data set [6] was determined as 0.0574 µmol.
Regarding `Cc1cc(C(C)(C)C)c(O)c(C(C)(C)C)c1`, the K in data set [8] was 1.1 ×10⁴ /M/s; in [9], 3.4 ×10⁴ /M/s; in data set [10] it was 0.37 ×10⁴ /M/s.
With `CC(=O)N[C@@H](CS)C(=O)O`, the K in [1] came out at 0.5 ×10³ /M/s; in data set [2] it was 13.6 ×10⁹ /M/s; in data set [3], 20.5 ×10⁷ /M/s; in data set [4], 19.3 ×10⁵ /M/s.
As to `O=C(O)/C=C/c1ccc(O)c(O)c1` [CAFFEIC ACID], the Ep in [5] amounted to 183 mV; in data set [7], 450 mV. Moreover, the EC50 in data set [6] was determined as 0.0478 µmol. Besides, the K was found to be 10.6 ×10³ /M/s in data set [1], 8.06 ×10⁹ /M/s in data set [2], 54.7 ×10⁷ /M/s in data set [3] and 75.9 ×10⁵ /M/s in data set [4].
Take `C[C@@H]1O[C@@H](OC[C@H]2O[C@@H](Oc3c(-c4ccc(O)c(O)c4)oc4cc(O)cc(O)c4c3=O)[C@H](O)[C@@H](O)[C@@H]2O)[C@H](O)[C@H](O)[C@H]1O`: the K stood at 15.4 ×10³ /M/s in [1], 6.38 ×10⁹ /M/s in [2], 34.8 ×10⁷ /M/s in data set [3] and 69 ×10⁵ /M/s in data set [4].
As to `Oc1nc(O)c2nc(O)[nH]c2n1`, the K in [1] was 10.6 ×10³ /M/s; in data set [2], 9.52 ×10⁹ /M/s; in data set [3], 2.3 ×10⁷ /M/s; in [4], 106 ×10⁵ /M/s.
Regarding `O=C(O)CC(O)(CC(=O)O)C(=O)O`, the K in data set [11] was 1600 M⁻¹; in [12], 1000 to 100000 M⁻¹; in data set [13], 1000 to 100000 M⁻¹.
Take `O=C(O)/C=C/c1ccc(O)cc1` [COUMARIC ACID]: the values for the Ep in data set [5] and in data set [7] were 736 mV and 670 mV, respectively. In addition, the EC50 in [6] is 66.29 µmol.
On to `O=c1c(-c2ccc(O)cc2)coc2cc(O)cc(O)c12`, for which the K was determined as 2.75 ×10³ /M/s in data set [1], 11.8 ×10⁹ /M/s in data set [2], 19.1 ×10⁷ /M/s in [3] and 20.7 ×10⁵ /M/s in [4].
Turning to `O=C(O)c1ccc(O)cc1` [PARABEN], the Ep in [7] is listed as 870 mV. Also, the EC50 in [6] is > 800 µmol.
For `COc1cc(C(=O)O)ccc1O` [VANILLIC ACID], the Ep in data set [7] came to 730 mV. Further, in [6], the EC50 was found to be 14.37 µmol.
`O=C(O)c1cc(O)c(O)c(O)c1` [GALLIC ACID]: the Ep in data set [5] lay in the range of 110 to 544 mV. The EC50 in [6] was determined as 0.0237 µmol.
Consider `O=C(O)/C=C/c1cc(O)c(O)c(O)c1`, for which the Ep in data set [5] is 384 mV.

Values taken from ChEMBL document CHEMBL4270492, “Free radicals and polyphenols: The redox chemistry of neurodegenerative diseases” (Eur J Med Chem, 2017).
